Counter-ions that a name gives are not always drawn.
Experiments:
Settings in all cases: exposure time: 72 h
[1] = test system: E34 (patient-derived glioblastoma stem cells of proneural subtype); assay: surviving fraction (nuclei count normalised to DMSO); higher = more cells surviving (less toxic)
[2] = test system: E21 (patient-derived glioblastoma stem cells of mesenchymal subtype); assay: as above
[3] = test system: FT3469 (normal neural stem cell line); assay: as above
[4] = test system: E13 (patient-derived glioblastoma stem cells of classical subtype); assay: as above
[5] = test system: E31 (patient-derived glioblastoma stem cells of proneural subtype); assay: as above
[6] = test system: E28 (patient-derived glioblastoma stem cells of classical subtype); assay: as above
[7] = test system: E57 (patient-derived glioblastoma stem cells of mesenchymal subtype); assay: as above
[8] = test system: E34; assay: phenotypic distance (Euclidean, principal components) from DMSO controls (arbitrary units); higher = stronger morphological change
[9] = test system: E21; assay: as above
[10] = test system: FT3469; assay: as above
[11] = test system: E13; assay: as above
[12] = test system: E31; assay: as above
[13] = test system: E28; assay: as above
[14] = test system: E57; assay: as above
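Throughout, for phenotypic distance (Euclidean, principal components) from DMSO controls: cell Painting imaging in 384-well plates, CellProfiler features reduced to at least 20 principal components, Euclidean distance versus same-plate DMSO vehicle wells (0.1% v/v), median over six images per well.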
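Throughout, for surviving fraction (nuclei count normalised to DMSO): nuclei counted by high-content imaging of Hoechst-stained cells in laminin-coated 384-well plates, relative to 0.1% DMSO vehicle wells, with staurosporine as cell-death control.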

`C[C@@H]1CN([C@H]2CC[C@](C#N)(c3ccc(F)cc3)CC2)CC[C@]1(C(=O)O)c1ccccc1` [Levocabastine hydrochloride] gave a surviving fraction ([1]; 4.1 nM) of 1.01, a surviving fraction ([1]; 12.3 nM) of 0.8 and a surviving fraction ([1]; 37 nM) of 1.25. The surviving fraction ([1]; 111.1 nM) was 0.952, the surviving fraction ([1]; 333.3 nM) was 0.972 and the surviving fraction ([1]; 1000 nM) was 0.909. It also gave a surviving fraction ([1]; 3000 nM) of 1.22, a surviving fraction ([2]; 4.1 nM) of 0.99 and a surviving fraction ([2]; 12.3 nM) of 1.15. It also gave a surviving fraction ([2]; 37 nM) of 0.977, a surviving fraction ([2]; 111.1 nM) of 1.12 and a surviving fraction ([2]; 333.3 nM) of 1.11. It also gave a surviving fraction ([2]; 1000 nM) of 1.12, a surviving fraction ([2]; 3000 nM) of 0.854 and a surviving fraction ([3]; 4.1 nM) of 1.08. The surviving fraction ([3]; 12.3 nM) was 1.15, the surviving fraction ([3]; 37 nM) was 1.05 and the surviving fraction ([3]; 111.1 nM) was 1.11. For the same compound, the surviving fraction ([3]; 333.3 nM) was 1.04, the surviving fraction ([3]; 1000 nM) was 1.07 and the surviving fraction ([3]; 3000 nM) was 0.784. It also gave a surviving fraction ([4]; 4.1 nM) of 0.997, a surviving fraction ([4]; 12.3 nM) of 1.04 and a surviving fraction ([4]; 37 nM) of 1.06. The surviving fraction ([4]; 111.1 nM) was 0.914, the surviving fraction ([4]; 333.3 nM) was 1.05 and the surviving fraction ([4]; 1000 nM) was 0.985. It also gave a surviving fraction ([4]; 3000 nM) of 0.918, a surviving fraction ([5]; 4.1 nM) of 1.11 and a surviving fraction ([5]; 12.3 nM) of 1.06. The surviving fraction ([5]; 37 nM) was 1.13, the surviving fraction ([5]; 111.1 nM) was 1.01 and the surviving fraction ([5]; 333.3 nM) was 1.17. For the same compound, the surviving fraction ([5]; 1000 nM) was 1.06, the surviving fraction ([5]; 3000 nM) was 1.06 and the surviving fraction ([6]; 4.1 nM) was 1.07. It also gave a surviving fraction ([6]; 12.3 nM) of 1.17, a surviving fraction ([6]; 37 nM) of 1.13 and a surviving fraction ([6]; 111.1 nM) of 1.1. The surviving fraction ([6]; 333.3 nM) was 1.1, the surviving fraction ([6]; 1000 nM) was 1.12 and the surviving fraction ([6]; 3000 nM) was 0.949. For the same compound, the surviving fraction ([7]; 4.1 nM) was 1.09, the surviving fraction ([7]; 12.3 nM) was 1.02 and the surviving fraction ([7]; 37 nM) was 0.987. The surviving fraction ([7]; 111.1 nM) was 1.11, the surviving fraction ([7]; 333.3 nM) was 1.08 and the surviving fraction ([7]; 1000 nM) was 0.975. It also gave a surviving fraction ([7]; 3000 nM) of 0.994, a phenotypic distance ([8]; 4.1 nM) of 0.554 and a phenotypic distance ([8]; 12.3 nM) of 1.09. For the same compound, the phenotypic distance ([8]; 37 nM) was 0.93, the phenotypic distance ([8]; 111.1 nM) was 0.824 and the phenotypic distance ([8]; 333.3 nM) was 0.742. The phenotypic distance ([8]; 1000 nM) was 0.79, the phenotypic distance ([8]; 3000 nM) was 0.624 and the phenotypic distance ([9]; 4.1 nM) was 0.745. For the same compound, the phenotypic distance ([9]; 12.3 nM) was 0.621, the phenotypic distance ([9]; 37 nM) was 0.743 and the phenotypic distance ([9]; 111.1 nM) was 0.866. It also gave a phenotypic distance ([9]; 333.3 nM) of 0.582, a phenotypic distance ([9]; 1000 nM) of 0.688 and a phenotypic distance ([9]; 3000 nM) of 3.41. For the same compound, the phenotypic distance ([10]; 4.1 nM) was 0.782, the phenotypic distance ([10]; 12.3 nM) was 0.792 and the phenotypic distance ([10]; 37 nM) was 0.998. It also gave a phenotypic distance ([10]; 111.1 nM) of 0.719, a phenotypic distance ([10]; 333.3 nM) of 3.75 and a phenotypic distance ([10]; 1000 nM) of 0.437. It also gave a phenotypic distance ([10]; 3000 nM) of 3.86, a phenotypic distance ([11]; 4.1 nM) of 0.774 and a phenotypic distance ([11]; 12.3 nM) of 0.599. It also gave a phenotypic distance ([11]; 37 nM) of 0.564, a phenotypic distance ([11]; 111.1 nM) of 0.596 and a phenotypic distance ([11]; 333.3 nM) of 0.491. For the same compound, the phenotypic distance ([11]; 1000 nM) was 0.354, the phenotypic distance ([11]; 3000 nM) was 0.712 and the phenotypic distance ([12]; 4.1 nM) was 0.412. The phenotypic distance ([12]; 12.3 nM) was 0.744, the phenotypic distance ([12]; 37 nM) was 0.868 and the phenotypic distance ([12]; 111.1 nM) was 0.539. For the same compound, the phenotypic distance ([12]; 333.3 nM) was 0.794, the phenotypic distance ([12]; 1000 nM) was 0.681 and the phenotypic distance ([12]; 3000 nM) was 0.779. The phenotypic distance ([13]; 4.1 nM) was 0.787, the phenotypic distance ([13]; 12.3 nM) was 0.763 and the phenotypic distance ([13]; 37 nM) was 0.863. It also gave a phenotypic distance ([13]; 111.1 nM) of 0.374, a phenotypic distance ([13]; 333.3 nM) of 0.741 and a phenotypic distance ([13]; 1000 nM) of 0.713. The phenotypic distance ([13]; 3000 nM) was 1.04, the phenotypic distance ([14]; 4.1 nM) was 1.04 and the phenotypic distance ([14]; 12.3 nM) was 0.495. It also gave a phenotypic distance ([14]; 37 nM) of 0.313, a phenotypic distance ([14]; 111.1 nM) of 0.928 and a phenotypic distance ([14]; 333.3 nM) of 4.21. The phenotypic distance ([14]; 1000 nM) was 0.708 and the phenotypic distance ([14]; 3000 nM) was 0.745.
`CN(C)C(=O)Oc1ccc[n+](C)c1` [Pyridostigmine iodide] gave a surviving fraction ([1]; 4.1 nM) of 1.17, a surviving fraction ([1]; 12.3 nM) of 0.894 and a surviving fraction ([1]; 37 nM) of 1.01. It also gave a surviving fraction ([1]; 111.1 nM) of 0.914, a surviving fraction ([1]; 333.3 nM) of 0.904 and a surviving fraction ([1]; 1000 nM) of 1.05. For the same compound, the surviving fraction ([1]; 3000 nM) was 1.24, the surviving fraction ([2]; 4.1 nM) was 0.969 and the surviving fraction ([2]; 12.3 nM) was 1.03. The surviving fraction ([2]; 37 nM) was 1.08, the surviving fraction ([2]; 111.1 nM) was 0.887 and the surviving fraction ([2]; 333.3 nM) was 0.981. It also gave a surviving fraction ([2]; 1000 nM) of 0.99, a surviving fraction ([2]; 3000 nM) of 1.04 and a surviving fraction ([3]; 4.1 nM) of 1.01. It also gave a surviving fraction ([3]; 12.3 nM) of 1.12, a surviving fraction ([3]; 37 nM) of 1.2 and a surviving fraction ([3]; 111.1 nM) of 1.07. For the same compound, the surviving fraction ([3]; 333.3 nM) was 1.12, the surviving fraction ([3]; 1000 nM) was 1.06 and the surviving fraction ([3]; 3000 nM) was 1.15. For the same compound, the surviving fraction ([4]; 4.1 nM) was 1.02, the surviving fraction ([4]; 12.3 nM) was 1.15 and the surviving fraction ([4]; 37 nM) was 1.04. The surviving fraction ([4]; 111.1 nM) was 0.975, the surviving fraction ([4]; 333.3 nM) was 1.06 and the surviving fraction ([4]; 1000 nM) was 1.03. It also gave a surviving fraction ([4]; 3000 nM) of 0.989, a surviving fraction ([5]; 4.1 nM) of 0.967 and a surviving fraction ([5]; 12.3 nM) of 1.05. It also gave a surviving fraction ([5]; 37 nM) of 0.914, a surviving fraction ([5]; 111.1 nM) of 1.02 and a surviving fraction ([5]; 333.3 nM) of 1.07. It also gave a surviving fraction ([5]; 1000 nM) of 0.944, a surviving fraction ([5]; 3000 nM) of 0.851 and a surviving fraction ([6]; 4.1 nM) of 1.07. The surviving fraction ([6]; 12.3 nM) was 0.975, the surviving fraction ([6]; 37 nM) was 1.02 and the surviving fraction ([6]; 111.1 nM) was 1.05. It also gave a surviving fraction ([6]; 333.3 nM) of 0.949, a surviving fraction ([6]; 1000 nM) of 1.18 and a surviving fraction ([6]; 3000 nM) of 0.96. The surviving fraction ([7]; 4.1 nM) was 1.16, the surviving fraction ([7]; 12.3 nM) was 1.04 and the surviving fraction ([7]; 37 nM) was 0.923. For the same compound, the surviving fraction ([7]; 111.1 nM) was 0.99, the surviving fraction ([7]; 333.3 nM) was 0.98 and the surviving fraction ([7]; 1000 nM) was 1.01. The surviving fraction ([7]; 3000 nM) was 0.937, the phenotypic distance ([8]; 4.1 nM) was 0.578 and the phenotypic distance ([8]; 12.3 nM) was 0.331. It also gave a phenotypic distance ([8]; 37 nM) of 1.86, a phenotypic distance ([8]; 111.1 nM) of 0.616 and a phenotypic distance ([8]; 333.3 nM) of 0.79. The phenotypic distance ([8]; 1000 nM) was 0.731, the phenotypic distance ([8]; 3000 nM) was 0.846 and the phenotypic distance ([9]; 4.1 nM) was 0.939. It also gave a phenotypic distance ([9]; 12.3 nM) of 0.565, a phenotypic distance ([9]; 37 nM) of 0.637 and a phenotypic distance ([9]; 111.1 nM) of 0.901. For the same compound, the phenotypic distance ([9]; 333.3 nM) was 3.46, the phenotypic distance ([9]; 1000 nM) was 1.09 and the phenotypic distance ([9]; 3000 nM) was 1.02. It also gave a phenotypic distance ([10]; 4.1 nM) of 0.42, a phenotypic distance ([10]; 12.3 nM) of 0.709 and a phenotypic distance ([10]; 37 nM) of 0.762. For the same compound, the phenotypic distance ([10]; 111.1 nM) was 0.872, the phenotypic distance ([10]; 333.3 nM) was 0.927 and the phenotypic distance ([10]; 1000 nM) was 0.794. The phenotypic distance ([10]; 3000 nM) was 1.39, the phenotypic distance ([11]; 4.1 nM) was 0.653 and the phenotypic distance ([11]; 12.3 nM) was 0.436. The phenotypic distance ([11]; 37 nM) was 0.527, the phenotypic distance ([11]; 111.1 nM) was 0.34 and the phenotypic distance ([11]; 333.3 nM) was 0.667. The phenotypic distance ([11]; 1000 nM) was 0.894, the phenotypic distance ([11]; 3000 nM) was 1.1 and the phenotypic distance ([12]; 4.1 nM) was 0.409. The phenotypic distance ([12]; 12.3 nM) was 0.507, the phenotypic distance ([12]; 37 nM) was 0.601 and the phenotypic distance ([12]; 111.1 nM) was 0.878. It also gave a phenotypic distance ([12]; 333.3 nM) of 0.996, a phenotypic distance ([12]; 1000 nM) of 2.91 and a phenotypic distance ([12]; 3000 nM) of 0.798. It also gave a phenotypic distance ([13]; 4.1 nM) of 0.458, a phenotypic distance ([13]; 12.3 nM) of 0.757 and a phenotypic distance ([13]; 37 nM) of 0.73. It also gave a phenotypic distance ([13]; 111.1 nM) of 0.63, a phenotypic distance ([13]; 333.3 nM) of 0.567 and a phenotypic distance ([13]; 1000 nM) of 0.651. The phenotypic distance ([13]; 3000 nM) was 0.684, the phenotypic distance ([14]; 4.1 nM) was 0.948 and the phenotypic distance ([14]; 12.3 nM) was 0.52. For the same compound, the phenotypic distance ([14]; 37 nM) was 0.595, the phenotypic distance ([14]; 111.1 nM) was 0.71 and the phenotypic distance ([14]; 333.3 nM) was 0.854. For the same compound, the phenotypic distance ([14]; 1000 nM) was 0.982 and the phenotypic distance ([14]; 3000 nM) was 0.881.

Source: the supplement of paper PMC13207355
